Results on seven molecules are retold here after patent US20150268254A1, “SEBOCYTE CELL CULTURING AND METHODS OF USE” (Children's Hospital Medical Center, priority 2012, published 2015).

One assay concerns sebocytes. The following applies: known effect of reference compound; cited from earlier work.
The subject of assay [1] is SEB-1. Nature of the assay: Real-time PCR of PPARγ expression in immortalized sebocyte line SEB-1. It is filed as cell-based, human. The following applies: SEB-1, 0.1 mM linoleic acid, 48 h, vs untreated. How it is done: (§1) Total RNA was isolated using a Rneasy Mini Kit (Qiagen, Germantown, Md.) and used to produce cDNA (Maxima first strand cDNA synthesis kit, Fermentas, Waltham, Mass.). Reverse transcription (RT) reactions were diluted to 10 ng/pl and 1 pl of each RT was used for real-time PCR. Real-time PCR was performed using the CFX96 real-time PCR System, CFX Manager Software and the SsoFast EvaGreen Supermix reagents (Biorad, Hercules, Calif.). All reactions were run in triplicate and analyzed using the […] with relative expression normalized to GAPDH.
For Nile red staining, cells or OCT sections were fixed 10 minutes at room temperature in 4% formaldehyde. After 3 wash in 1×PBS, staining with 0.1 pg/ml of Nile red (Sigma) was performed in 0.15M NaCl for 15 minutes at room temperature. For Oil red 0 staining, cells were fixed 15 minutes in 10% formalin, wash with water for 10 minutes and 60% isopropanol before being stained with Oil red 0 (0.7% in 60% isopropanol) for 45 minutes. Cells were rinsed with 60% isopropanol and the nuclei stained with haematoxylin. […] The qualitative and quantitative composition of lipids in scalp-derived human sebocytes was determined using an Agilent 5973N Gas chromatograph/Mass spectrometer with a SPE cartridge (solid phase extraction) and was performed by Synelvia S.A.S (Labege, France).

The test system of assay [2] is SSG3 cells. Kind of assay: Real-time PCR of lipogenic gene expression in primary SSG3 sebocytes. In kind it is cell-based, human. How it is done:
To ablate TGFβRII in SSG3 cells, shRNA vectors from the CCHMC Heart Institute lenti-shRNA library core (shRNA TGFβRII #197031 and 194992 and a shRNA control) were used. The human library was purchased from Sigma-Aldrich (MISSION shRNA; St. Louis, Mo.). Viral vector was produced by the Viral Vector Core at the Translational Core Laboratories, Cincinnati Children's Hospital Research Foundation. Cells were grown to 80% confluency in 6-well plates before being infected with the lentivirus for 48 h. Infected cells were selected with 1 µg/ml puromycin (Sigma) for 48 h. Following selection, TGFβRII knock down cells were grown in regular media for 48 h before being activated with 5 ng/ml TGFβ1 for 24 h.
as §1
(§2) For Nile red staining, cells or OCT sections were fixed 10 minutes at room temperature in 4% formaldehyde. After 3 wash in 1×PBS, staining with 0.1 pg/ml of Nile red (Sigma) was performed in 0.15M NaCl for 15 minutes at room temperature. For Oil red 0 staining, cells were fixed 15 minutes in 10% formalin, wash with water for 10 minutes and 60% isopropanol before being stained with Oil red 0 (0.7% in 60% isopropanol) for 45 minutes. Cells were rinsed with 60% isopropanol and the nuclei stained with haematoxylin. To trigger differentiation of sebocytes in vitro, linoleic acid (Sigma, 0.1 mM) was added directly to sebocyte media. To prepare cells for extraction of lipids, 20-30 millions of cells were pelleted, washed with 1×PBS and lipid were preserved in the dark at −80° C. under argon until analysis. The qualitative and quantitative composition of lipids in scalp-derived human sebocytes was determined using an Agilent 5973N Gas chromatograph/Mass spectrometer with a SPE cartridge (solid phase extraction) and was performed by Synelvia S.A.S (Labege, France).

The test system of assay [3] is SSG3 cells. Nature of the assay: Lipogenesis assays (Nile red, Oil red O, electron microscopy, Nile red FACS) in SSG3 cells. It is filed as cell-based, human. How it is done:
as §2
Cells were cultured in 6-well plates at 80% confluence and infected with the lentivirus expressing the shRNAs as previously described. After puromycin selection for 48 h, cells were washed in 1×PBS and treated with working medium with or without Linoleic acid (0.1 mM) for 24 h. The cells were trypsinized, washed once with 1×PBS and neutral lipids were labeled with the fluorescent dye Nile red (1 pg/ml in PBS). 10,000 cells per sample were analyzed using a FACS Canto I (BD Biosciences) equipped with a blue laser (488 nm excitation).
Cells were grown at 80% confluency in sebocyte media and rinsed once with 0.175M sodium cacodylate buffer. Cells were fixed in 3% glutaraldehyde/0.175M cacodylate buffer for 1 hour at 4° C. Dishes were washed twice with 0.175M sodium cacodylate buffer. Cells were post fixed in 1% osmium tetroxide/cacodylate buffer for 1 hour at 4° C. before being washed three times with 0.175M sodium cacodylate buffer. After the final wash with 1.5 ml, cells were scraped and centrifuged for 5 min at 10K. The cell pellet was then resuspended in 1 ml 1% agarose (Type IX ultra-low gelling tempt, Sigma) overnight at 4° C. The samples were then processed through a graded series of alcohols, infiltrated and embedded in LX-112 resin (Ladd Research, Williston, Vt. After polymerization at 60° C. for three days, ultrathin sections (100 nm) were cut using a Reichert-Jung Ultracut E microtome and counterstained in 2% aqueous uranyl acetate and Reynolds lead citrate. Images were taken with a transmission electron microscope (Hitachi H-6750) equipped with a digital camera (AMT 2k×2K tem CCD).

In the next assay the test system is SSG3 sebocytes. Nature of the assay: Immunoblot of Smad2 phosphorylation in SSG3 sebocytes. It is filed as cell-based, human. The following applies: 5 ng/ml TGFβ1, one hour.
Assay [4] concerns sebocytes-derived from breast and face. Kind of assay: Real-time PCR of lipogenic genes in breast- and face-derived sebocytes. It is filed as cell-based, human. The following applies: 5 ng/ml TGFβ1, 24 h. How it is done:
as §1
RNA was isolated from sebocytes-derived from breast and face untreated or treated with 5 ng/ml of TGFβ1 for 24 h and used for real-time PCR. Two experiments were performed and all qPCR reactions were performed in triplicate. Data were normalized to GAPDH expression for each cell population and changes in relative expression were determined using untreated cells as a reference point.

The subject of assay [5] is SEB-1. Kind of assay: Immunoblot of Smad2 phosphorylation in SEB-1. It is filed as cell-based, human. The following applies: 5 ng/ml TGFβ1, one hour.
A further assay relates to NIKS. Nature of the assay: Immunoblot of Smad2 phosphorylation in NIKS keratinocytes. It is filed as cell-based, human. The following applies: 5 ng/ml TGFβ1, one hour.
[6] abbreviates: SSG3, 5 ng/ml TGFβ1, 24 h, vs untreated.
Where [7] appears, read: TGFβRII-deficient SSG3 cells, TGFβ1.

Consider `C[C@]12CCC(=O)C[C@@H]1CC[C@@H]1[C@@H]2CC[C@]2(C)[C@@H](O)CC[C@@H]12` [5α-DHT, di-hydrotestosterone], for which, in the assay with sebocytes, the effect on lipogenesis result is given as “increase lipogenesis” and the effect on proliferation result was “increase proliferation”.

With `CC(=O)O[C@]1(C(C)=O)CC[C@H]2[C@@H]3C=C(Cl)C4=CC(=O)[C@@H]5C[C@@H]5[C@]4(C)[C@H]3CC[C@@]21C` [Cyproteron acetate], the effect on lipogenesis entry with sebocytes is on record as “decrease lipogenesis”.

Take `C[C@]12CC[C@H](O)CC1=CC[C@@H]1[C@@H]2CC[C@]2(C)C(=O)CC[C@@H]12` [DHEA, 5-Dehydroepiandrosterone]: in the assay with sebocytes, the effect on lipogenesis entry was “increase lipogenesis”.

`CC1=C(/C=C/C(C)=C/C=C/C(C)=C\C(=O)O)C(C)(C)CCC1` [Isotretinoin, 13-cis retinoic acid]: in the assay with sebocytes, the “effect on cell cycle” value was “cell cycle arrest” and the effect on proliferation entry was “anti-proliferative effect on sebocytes”.

For the molecule `CN(CCOc1ccc(CC2SC(=O)NC2=O)cc1)c1ccccn1` (stereo not shown) [Rosglitazone], the effect on lipogenesis result in the assay on sebocytes is “decrease lipogenesis”.

In the case of `CCCCC/C=C\C/C=C\CCCCCCCC(=O)O` [linoleic acid], the PPARγ expression result in the assay on SEB-1 [1] is given as “do not show any significant changes”; in the assay on SSG3 cells [2] (SSG3 cells, 0.1 mM linoleic acid, 48 h, vs untreated) it was “increase in PPARγ”. Also, in the assay on SSG3 cells [2] (SSG3 cells, 0.1 mM linoleic acid, 24 h and 48 h, vs untreated), the FADS2 expression result is recorded as “significant increase of FADS2 expression”. Moreover, the “Nile red flow cytometry: fluorescence (neutral lipids) and granularity” value in the assay with SSG3 cells [3] (SSG3, 0.1 mM linoleic acid, 24 h) was “increase of fluorescence and granularity”. Moreover, in the assay with SSG3 cells [3] (SSG3, after linoleic acid treatment vs untreated), the “lipid droplets by electron microscopy” value is given as “increase of lipid droplets with higher electron density”. Moreover, the “cellular lipid distribution by Nile red stain” value in the assay with SSG3 cells [3] (SSG3, two days of linoleic acid treatment (0.1 mM)) was “producing lipids”.

Regarding “TGFβ1: exogenously recombinant TGFβ1, Transforming Growth Factor β ligand”, the “Smad2 activation (phosphorylated Smad2)” value with SSG3 sebocytes was “activate Smad2”. In assay [4], the FADS2 expression entry is “decreased significantly” and the PPARγ expression entry is recorded as “decreased significantly”. Further, in the assay with SSG3 cells [2] (setting [6]), the “mRNA expression of FADS2” value is “significantly decreased” and the “mRNA expression of PPARγ” value was “significantly decreased”. In the assay with SSG3 cells [2] (setting [7]), the “decrease in FADS2 gene expression after TGFβ1” value is listed as “not detected” and the “decrease in PPARγ gene expression after TGFβ1” value was “not detected”. The TGFβRII expression entry in the assay with SSG3 cells [2] (control SSG3 cells treated with TGFβ for 24 h) was “decrease of TGFβRII”. The lipid production result in the assay on SSG3 cells [3] (SSG3 expressing TGFβRII shRNA, TGFβ1 5 ng/ml, 24 h) is on record as “no effect on the lipid production”. For the same molecule, in the assay with SSG3 cells [3] (SSG3 with non-targeting shRNA control, TGFβ1 5 ng/ml, 24 h), the lipid inclusion entry is given as “decrease in lipid inclusion”. The “Smad2 activation (phosphorylated Smad2)” value in the assay with SEB-1 [5] is on record as “activate Smad2”. Moreover, the “Smad2 activation (phosphorylated Smad2)” value in the assay with NIKS is “activate Smad2”.
